In brackets after ≈: the same amount, converted by molar mass.
Experiment: Dissolution assessment: solubility in FaSSIF
Assay type: physicochemical
Conditions: FaSSIF pH 6.5, 37° C., 600 rpm, target concentration 1.0 mg/mL
Method: An amount of Compound A (about 6 mg) and an amorphous solid dispersion (equivalent to around 6 mg Compound A) were weighed into separate 8 ml bottle, and 6 ml FaSSIF (Fasted state simulated intestinal fluid) was added (target concentration 1.0 mg/mL). The suspensions were stirred using a thermomixer at 37° C. under 600 rpm and 200 μL of suspensions were withdrawn at pre-set time intervals (such as 5 min) and then centrifuged at 14000 rpm for 4 min. Then, 100 μL of supernatant was diluted with 500 μL ACN (Acetonitrile) to prevent precipitation, and was analyzed by HPLC.
FaSSIF was prepared by following steps: 1) Place 0.1024 g sodium hydroxide, 0.7518 g sodium dihydrogen phosphate anhydrous and 1.5470 g sodium chloride in a 250 mL volumetric flask, add about 225 mL water, and adjust the pH to 6.5 with 1 N sodium hydroxide or 1N hydrochloric acid. Make up to volume (250 mL) with pure water. 2) Place and dissolve 0.4480 g SIF Powder Original with 100 mL of buffer (from step 1) in a 200 mL volumetric flask, add water to volume and mix well.

Solubility 5 min (5 min): 4.95 µg/mL (≈ 9.16 µM)
Solubility 15 min (15 min): 4.89 µg/mL (≈ 9.05 µM)
Structure (SMILES): COC(=O)OCOc1c2n(ccc1=O)N([C@H]1c3ccccc3CSc3c1ccc(F)c3F)CC1(CC1)C2=O [Sample 1, [1-((11S)-7,8-difluoro(6H,11H-dibenzo[c,f]thiepin-11-yl))-4,6-dioxospiro[1,2,3,9-tetrahydropyridino[1,2-e]pyridazine-3,1′-cyclopropane]-5-yloxy]methyl methoxyformate]
